# Test results from article PMC10518257 (Nature Cancer, 2023).
# Several values for one entry are separate records, joined by “and”; a condition that tells them apart may be missing. Identical values can stand only once. Like-named read-outs stand apart in the source and are kept apart here.
# Tests used:
# [1] = system: TT cells; assay: Growth inhibition (alamarBlue, 96 h); assay type: cell-based, human
# [2] = system: Ba/F3 cells expressing KIF5B–RET^G810R; assay: Growth inhibition assay in Ba/F3 cells (CellTiter-Glo, 72 h); assay type: cell-based; details: replicate Sets 1-3
# [3] = system: LUAD-0087AS2 PDX; assay: PDX efficacy study; details: for Tumor volume: LUAD-0087AS2, selpercatinib group 30 mg/kg BID, individual animals
# [4] = system: Ba/F3 cells expressing KIF5B–RET^G810C; assay: Growth inhibition assay in Ba/F3 cells (CellTiter-Glo, 72 h); assay type: cell-based; details: replicate Sets 1-3
# [5] = system: HBECp53-RET cells (CCDC6-RET fusion); assay: Growth inhibition (alamarBlue, 96 h); assay type: cell-based, human; details: for raw viability signal (Source Data Fig. 3b-c): HBEC-RET, replicate sets
# [6] = system: Ba/F3-CCDC6::RET; assay: Growth inhibition assay in Ba/F3 cells (CellTiter-Glo, 72 h); assay type: cell-based
# [7] = system: LUAD-0086AS3 cells; assay: Growth inhibition (alamarBlue, 96 h); assay type: cell-based, human; details: for raw viability signal (Source Data Fig. 3b-c): LUAD-0086AS3 (n=1, 3 replicates)
# [8] = target: T1, panel of 255 (vepafestinib) or 256 (all other inhibitors) recombinant kinases (Homo sapiens, UniProt P35916); assay: Kinase selectivity profiling at a single concentration (Carna Biosciences); assay type: biochemical; details: 22 nM
# T1 construct: purchased Carna Biosciences
# T1 sequence (P35916 25-1363): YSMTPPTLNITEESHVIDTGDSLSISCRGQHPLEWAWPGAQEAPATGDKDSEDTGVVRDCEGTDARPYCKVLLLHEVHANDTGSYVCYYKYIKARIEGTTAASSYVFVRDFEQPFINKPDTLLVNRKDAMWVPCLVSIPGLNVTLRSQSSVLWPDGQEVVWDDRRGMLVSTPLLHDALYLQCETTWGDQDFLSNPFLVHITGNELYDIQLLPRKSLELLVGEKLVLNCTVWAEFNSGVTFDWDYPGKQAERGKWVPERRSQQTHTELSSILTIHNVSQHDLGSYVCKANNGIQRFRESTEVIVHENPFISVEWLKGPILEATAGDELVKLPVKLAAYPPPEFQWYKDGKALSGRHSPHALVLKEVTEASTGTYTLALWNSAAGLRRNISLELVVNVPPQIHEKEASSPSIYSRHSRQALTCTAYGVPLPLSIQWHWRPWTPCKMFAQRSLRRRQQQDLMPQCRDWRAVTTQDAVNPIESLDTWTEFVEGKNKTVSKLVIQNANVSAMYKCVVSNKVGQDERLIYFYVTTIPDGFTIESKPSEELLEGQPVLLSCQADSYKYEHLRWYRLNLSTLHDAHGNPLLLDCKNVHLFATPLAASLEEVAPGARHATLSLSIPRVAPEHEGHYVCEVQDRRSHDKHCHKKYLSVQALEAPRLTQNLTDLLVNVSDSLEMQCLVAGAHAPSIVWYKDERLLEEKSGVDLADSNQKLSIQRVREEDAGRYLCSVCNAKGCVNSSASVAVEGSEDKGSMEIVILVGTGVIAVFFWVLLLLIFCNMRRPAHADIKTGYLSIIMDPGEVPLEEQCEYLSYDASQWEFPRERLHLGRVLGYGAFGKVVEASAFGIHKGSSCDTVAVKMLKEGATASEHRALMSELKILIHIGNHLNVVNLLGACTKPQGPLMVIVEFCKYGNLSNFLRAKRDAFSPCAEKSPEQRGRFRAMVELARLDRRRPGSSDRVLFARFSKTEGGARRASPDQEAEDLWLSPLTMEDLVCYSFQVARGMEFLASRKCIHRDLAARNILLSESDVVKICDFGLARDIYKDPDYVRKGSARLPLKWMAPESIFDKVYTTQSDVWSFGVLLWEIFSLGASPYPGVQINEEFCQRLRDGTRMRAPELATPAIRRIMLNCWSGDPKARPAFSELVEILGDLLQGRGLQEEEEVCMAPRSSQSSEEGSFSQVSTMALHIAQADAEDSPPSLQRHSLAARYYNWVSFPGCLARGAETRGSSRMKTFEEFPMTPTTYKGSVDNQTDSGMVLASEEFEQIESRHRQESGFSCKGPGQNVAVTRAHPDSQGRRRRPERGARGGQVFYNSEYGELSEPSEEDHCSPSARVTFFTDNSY
# [9] = target: panel of 255 (vepafestinib) or 256 (all other inhibitors) recombinant kinases; assay: as above; assay type: biochemical; details: 22 nM, 256 kinases
# [10] = target: T2, panel of 255 (vepafestinib) or 256 (all other inhibitors) recombinant kinases (Homo sapiens, UniProt P16234); assay: as above; assay type: biochemical; details: 22 nM
# T2 construct: purchased Carna Biosciences
# T2 sequence (P16234 24-1089): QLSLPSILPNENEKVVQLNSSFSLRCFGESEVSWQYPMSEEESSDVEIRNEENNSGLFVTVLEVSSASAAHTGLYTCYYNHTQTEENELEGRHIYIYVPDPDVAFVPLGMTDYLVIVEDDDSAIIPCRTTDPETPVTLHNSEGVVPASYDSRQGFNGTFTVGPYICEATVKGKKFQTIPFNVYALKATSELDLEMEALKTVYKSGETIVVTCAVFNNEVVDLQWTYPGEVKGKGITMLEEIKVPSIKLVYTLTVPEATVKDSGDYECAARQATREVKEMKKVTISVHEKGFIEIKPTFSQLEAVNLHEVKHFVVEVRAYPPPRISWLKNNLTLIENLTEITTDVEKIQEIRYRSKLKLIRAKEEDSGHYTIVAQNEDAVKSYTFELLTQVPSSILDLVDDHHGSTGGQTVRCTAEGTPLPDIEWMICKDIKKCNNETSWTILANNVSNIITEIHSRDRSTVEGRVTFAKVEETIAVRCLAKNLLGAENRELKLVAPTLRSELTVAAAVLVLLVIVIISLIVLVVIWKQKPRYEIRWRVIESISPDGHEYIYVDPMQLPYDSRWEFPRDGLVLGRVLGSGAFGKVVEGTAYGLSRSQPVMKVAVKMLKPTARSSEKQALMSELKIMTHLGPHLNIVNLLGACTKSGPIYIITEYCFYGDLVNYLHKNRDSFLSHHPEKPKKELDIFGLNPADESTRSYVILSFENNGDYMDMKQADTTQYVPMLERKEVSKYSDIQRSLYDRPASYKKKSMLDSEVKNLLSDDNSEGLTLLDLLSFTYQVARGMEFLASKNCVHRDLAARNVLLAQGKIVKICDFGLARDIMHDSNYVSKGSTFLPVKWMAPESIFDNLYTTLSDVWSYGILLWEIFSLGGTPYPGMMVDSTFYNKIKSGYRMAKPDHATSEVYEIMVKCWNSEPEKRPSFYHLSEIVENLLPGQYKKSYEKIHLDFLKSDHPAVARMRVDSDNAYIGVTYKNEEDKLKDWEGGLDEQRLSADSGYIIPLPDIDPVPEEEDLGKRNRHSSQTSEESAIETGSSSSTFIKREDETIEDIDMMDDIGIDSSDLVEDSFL
# [11] = system: TT cells (RET C634W); assay: Dose-response western blotting, EC50 for inhibition of protein phosphorylation; assay type: cell-based; details: Homo sapiens
# [12] = Homo sapiens, 96 h, read-out: IC50 for Inhibition of Growth (95% CI)
structure (smiles),measurement,setting,value
COc1ccc(CN2C3CC2CN(c2ccc(-c4cc(OCC(C)(C)O)cn5ncc(C#N)c45)cn2)C3)cn1 [Selpercatinib],raw viability signal (Source Data Fig. 3b-c),"[1]; 10000 nM, replicate sets",9076.49 and 11812.8 and 14226.5 and 5846.11 and 12620.2
same,IC50,[1]; [12],23 nM
same,GI50,[2]; Ba/3-KIF5B-RET-G810R,1070 nM and 1190 nM
same,GI50,"[2]; Mus musculus, BaF3, Ba/3-KIF5B-RET-G810R",800 nM
same,Area Under Curve Mean,"[3]; Fig. 6a LUAD-0087AS2 tumor growth, selpercatinib 30 mg/kg BID",-1216
same,Tumor volume,[3]; treatment day 0,118.47 (2×) and 116.65 and 114.49 (2×)
same,Tumor volume,[3]; treatment day 3,107.17 (3×) and 103.77 and 112.73
same,Tumor volume,[3]; treatment day 7,99.78 and 112.28 and 107.17 (2×) and 110.58
same,Tumor volume,[3]; treatment day 10,95.03 (4×) and 96.62
same,Tumor volume,[3]; treatment day 14,91.61 and 88.25 and 95.03 and 86.78 and 91.87
same,Tumor volume,[3]; treatment day 17,103.77 and 88.25 and 107.17 and 96.62 and 91.87
same,Tumor volume,[3]; treatment day 21,103.77 and 83.83 and 96.62 (2×) and 91.87
same,Tumor volume,[3]; treatment day 24,72.18 (2×) and 83.97 and 80.89 and 74.9
same,Tumor volume,[3]; treatment day 29,80.89 (2×) and 72.18 and 85.5 and 74.9
same,Tumor volume,[3]; treatment day 32,80.89 (3×) and 75.04 and 70.69
same,Tumor volume,[3]; treatment day 35,82.36 and 75.04 and 88.7 and 80.89 and 70.69
same,Tumor volume,[3]; treatment day 38,79.29 and 75.04 and 88.7 and 80.89 and 70.69
same,Tumor volume,[3]; treatment day 42,79.29 and 75.04 and 98.67 and 80.89 and 77.87
same,Tumor volume,[3]; treatment day 45,79.29 and 72.18 and 98.67 and 68.07 and 73.54
same,GI50,[4]; Ba/3-KIF5B-RET-G810C,201 nM and 181 nM
same,GI50,"[4]; Mus musculus, BaF3, Ba/3-KIF5B-RET-G810C",233 nM
same,raw viability signal (Source Data Fig. 3b-c),[5]; 0.01 nM,18093.2 and 9060.84 and 18084.5
same,raw viability signal (Source Data Fig. 3b-c),[5]; 0.1 nM,17267.5 and 9270.44 and 17759.2
same,raw viability signal (Source Data Fig. 3b-c),[5]; 1 nM,17188.9 and 9066.79 and 17837.1
same,raw viability signal (Source Data Fig. 3b-c),[5]; 10 nM,6462.76 and 8147.32 and 16191.8
same,raw viability signal (Source Data Fig. 3b-c),[5]; 100 nM,3445.11 and 2694.56 and 6209.19
same,raw viability signal (Source Data Fig. 3b-c),[5]; 1000 nM,2899.6 and 1772.22 and 5277.83
same,raw viability signal (Source Data Fig. 3b-c),[5]; 10000 nM,2192.17 and 1006.02 and 4021.33
same,IC50,"[5]; Homo sapiens, 96 h, read-out: IC50 for Inhibition of Growth (95% CI), HBECp53-RET, alamarBlue, 96 h",26 nM
same,GI50,"[6]; BaF3/CCDC6-RET, 72 h, read-out: GI50 value (Mean ± SD), Ba/F3-CCDC6::RET, CellTiter-Glo, 72 h",21.4 ± 7.5 nM
same,GI50,"[6]; read-out: GI50 values, Ba/F3-CCDC6::RET, individual sets (replicate experiments)",13 nM and 27.4 nM
same,IC50,[7]; [12],84 nM
same,raw viability signal (Source Data Fig. 3b-c),[7]; 0.01 nM,32605.6 and 32345.5 and 24840.6
same,raw viability signal (Source Data Fig. 3b-c),[7]; 0.1 nM,24088.4 and 24382.4 and 28533.2
same,raw viability signal (Source Data Fig. 3b-c),[7]; 1 nM,21980.7 and 23036.6 and 27631.4
same,raw viability signal (Source Data Fig. 3b-c),[7]; 10 nM,22728.2 and 21261.8 and 26828.6
same,raw viability signal (Source Data Fig. 3b-c),[7]; 100 nM,13108.2 and 14842.7 and 15753
same,raw viability signal (Source Data Fig. 3b-c),[7]; 1000 nM,5050.52 and 4540.04 and 5107.48
same,raw viability signal (Source Data Fig. 3b-c),[7]; 10000 nM,1139.12 and 1223.75 and 1244.48
same,% Inhibiton FLT4,[8],84.9%
same,kinases inhibited by >50%,[9],three
same,% Inhibiton PDGFRα,[10],28.7%
same,EC50,"[11]; read-out: EC50 for Inhibition of Protein Phosphorylation (95% CI), AKT S473, 2 h, densitometry",1.9 nM
same,EC50,"[11]; read-out: EC50 for Inhibition of Protein Phosphorylation (95% CI), ERK1/2 T202/Y204, 2 h, densitometry",0.2 nM
same,EC50,"[11]; read-out: EC50 for Inhibition of Protein Phosphorylation (95% CI), MEK1/2 S217/S221, 2 h, densitometry",1.9 nM
same,EC50,"[11]; read-out: EC50 for Inhibition of Protein Phosphorylation (95% CI), P70 RSK T421/S424, 2 h, densitometry",1.7 nM
same,EC50,"[11]; read-out: EC50 for Inhibition of Protein Phosphorylation (95% CI), RET Y905, 2 h, densitometry",11.8 nM
same,EC50,"[11]; read-out: EC50 for Inhibition of Protein Phosphorylation (95% CI), S6RP S235/S236, 2 h, densitometry",0.6 nM
